Measured values: the supplement of paper PMC10307832

Tests used:
Assay in all cases: relative viability (nuclei count vs DMSO), 5 days (fraction); higher = more cells survive
Bosutinib + Palbociclib = compound: COc1cc(Nc2c(C#N)cnc3cc(OCCCN4CCN(C)CC4)c(OC)cc23)c(Cl)cc1Cl [Bosutinib] + CC(=O)c1c(C)c2cnc(Nc3ccc(N4CCNCC4)cn3)nc2n(C2CCCC2)c1=O [Palbociclib] (partner 0.5 µM)
Summary of the method: (§1)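 Lung cancer cell lines in 1536-well plates were dosed by pin tool the day after seeding, either with one drug alone or with a fixed anchor-drug dose plus five library-drug doses (not always all listed) in √10 steps. After 5 days, cells were fixed and their nuclei stained in one step (final 0.05% Triton X-100, 1% formaldehyde, 1 ug/ml Hoechst), then counted on 4× images. Relative viability is the nuclei count in treated wells divided by that in vehicle wells. Values are medians of duplicate plates.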

Bosutinib + Luminespib = compound: COc1cc(Nc2c(C#N)cnc3cc(OCCCN4CCN(C)CC4)c(OC)cc23)c(Cl)cc1Cl [Bosutinib] + CCNC(=O)c1noc(-c2cc(C(C)C)c(O)cc2O)c1-c1ccc(CN2CCOCC2)cc1 [Luminespib] (partner 0.01 µM)
Summary of the method: as §1

Bosutinib + Linsitinib = compound: COc1cc(Nc2c(C#N)cnc3cc(OCCCN4CCN(C)CC4)c(OC)cc23)c(Cl)cc1Cl [Bosutinib] + C[C@]1(O)C[C@@H](c2nc(-c3ccc4ccc(-c5ccccc5)nc4c3)c3c(N)nccn32)C1 [Linsitinib] (partner 1 µM)
Summary of the method: as §1

Bosutinib + AZD7762 = compound: COc1cc(Nc2c(C#N)cnc3cc(OCCCN4CCN(C)CC4)c(OC)cc23)c(Cl)cc1Cl [Bosutinib] + NC(=O)Nc1cc(-c2cccc(F)c2)sc1C(=O)N[C@H]1CCCNC1 [AZD7762] (partner 0.2 µM)
Summary of the method: as §1

Bosutinib + Olaparib = compound: COc1cc(Nc2c(C#N)cnc3cc(OCCCN4CCN(C)CC4)c(OC)cc23)c(Cl)cc1Cl [Bosutinib] + O=C(c1cc(Cc2n[nH]c(=O)c3ccccc23)ccc1F)N1CCN(C(=O)C2CC2)CC1 [Olaparib] (partner 8 µM)
Summary of the method: as §1

| Cell Line | relative viability (Bosutinib + Palbociclib; first compound 0.01 µM) | relative viability (Bosutinib + Palbociclib; first compound 0.03162 µM) | relative viability (Bosutinib + Palbociclib; first compound 0.1 µM) | relative viability (Bosutinib + Palbociclib; first compound 1 µM) | relative viability (Bosutinib + Luminespib; first compound 0.01 µM) | relative viability (Bosutinib + Luminespib; first compound 0.03162 µM) | relative viability (Bosutinib + Luminespib; first compound 0.1 µM) | relative viability (Bosutinib + Luminespib; first compound 1 µM) | relative viability (Bosutinib + Linsitinib; first compound 0.01 µM) | relative viability (Bosutinib + Linsitinib; first compound 0.03162 µM) | relative viability (Bosutinib + Linsitinib; first compound 0.1 µM) | relative viability (Bosutinib + Linsitinib; first compound 1 µM) | relative viability (Bosutinib + AZD7762; first compound 0.01 µM) | relative viability (Bosutinib + AZD7762; first compound 0.03162 µM) | relative viability (Bosutinib + AZD7762; first compound 0.1 µM) | relative viability (Bosutinib + AZD7762; first compound 1 µM) | relative viability (Bosutinib + Olaparib; first compound 0.01 µM) | relative viability (Bosutinib + Olaparib; first compound 0.03162 µM) | relative viability (Bosutinib + Olaparib; first compound 0.1 µM) | relative viability (Bosutinib + Olaparib; first compound 1 µM) |
| --- | --- | --- | --- | --- | --- | --- | --- | --- | --- | --- | --- | --- | --- | --- | --- | --- | --- | --- | --- | --- |
| 201T | 0.355 | 0.345 | 0.35 | 0.338 | 1.01 | 1.06 | 1.02 | 0.848 | 1.08 | 0.987 | 1.02 | 0.966 | 0.581 | 0.654 | 0.603 | 0.62 | 0.829 | 0.884 | 0.888 | 0.76 |
| A-427 | 0.585 | 0.496 | 0.504 | 0.523 | 0.959 | 0.953 | 0.936 | 0.745 | 1.1 | 1.13 | 1.21 | 1.02 | 0.777 | 0.691 | 0.661 | 0.643 | 0.73 | 0.764 | 0.742 | 0.68 |
| ABC-1 | 0.864 | 0.72 | 0.759 | 0.612 | 0.665 | 0.536 | 0.713 | 0.481 | 0.858 | 0.931 | 0.647 | 0.359 | – | 0.873 | 0.915 | 0.677 | 0.531 | 0.964 | 0.743 | 0.46 |
| BEN | 0.449 | 0.444 | 0.493 | 0.447 | 0.442 | 0.282 | 0.478 | 0.434 | 0.981 | 0.798 | 1.01 | 0.604 | 0.608 | 0.697 | 0.675 | 0.658 | 1.04 | 1.05 | 1.04 | 0.735 |
| CAL-12T | 0.488 | 0.493 | 0.396 | 0.117 | 0.516 | 0.587 | 0.335 | 0.204 | 0.739 | 0.932 | 0.891 | 0.71 | 0.576 | 0.529 | 0.596 | 0.515 | 0.704 | 0.665 | 0.64 | 0.766 |
| COR-L23 | 0.275 | 0.366 | 0.22 | 0.322 | 0.613 | 0.685 | 0.76 | 0.56 | 1 | 0.96 | 0.895 | 0.887 | – | – | – | – | 0.341 | 0.353 | 0.348 | 0.309 |
| COR-L 105 | 0.401 | 0.385 | 0.443 | 0.412 | 0.882 | 0.635 | 0.669 | 0.471 | 0.948 | 1.21 | 0.857 | 0.59 | – | – | – | – | 0.677 | 0.743 | 0.844 | 0.603 |
| ChaGo-K-1 | 0.918 | 0.939 | 0.972 | 0.881 | 0.622 | 0.555 | 0.47 | 0.585 | – | – | – | – | 0.919 | 0.89 | 0.923 | 0.852 | 0.432 | 0.458 | 0.401 | 0.435 |
| EKVX | 0.39 | 0.367 | 0.373 | 0.314 | 0.799 | 0.914 | 0.834 | 0.633 | 0.974 | 0.982 | 1 | 0.539 | 0.441 | 0.751 | 0.735 | 0.656 | 0.925 | 0.86 | 0.876 | 0.628 |
